Source: US12077503B2, “Substituted cyclic amides and their use as herbicides” (FMC CORPORATION, priority 2015, dated 2024)

Assays:
Format in all cases: in vivo
[1] = system: corn (Zea mays); test: Test G Pre-Emergence Protocol; conditions: evaluated after 13 days; for Corn damage rating / plant damage rating, Corn: 62.5 g ai/ha, 100=total damage to plant, 0=no damage to plant
Procedure: (§1) Seeds of corn (Zea mays), giant foxtail (Setaria faberi), barnyardgrass (Echinochloa crus-galli), ivy-leaved morning glory (Ipomoea hederacea), redroot pigweed (Amaranthus retroflexus) and velvetleaf (Abutilon theophrasti) were sown in standard soil in pots. After cultivation for one day under controlled conditions in a glasshouse (at 24/16° C., day/night; 14 hours light; 65% humidity), the plants were sprayed with an aqueous spray solution derived from the formulation of the technical active ingredient in acetone/water (50:50) solution containing 0.5% Tween 20 (polyoxyethylene sorbitan monolaurate, CAS RN 9005-64-5) to give a final dose of 15.625, 62.5 or 250 g/ha of test compound.
(§2) The test plants were then grown on under controlled conditions in a glasshouse (at 24/16° C., day/night; 14 hours light; 65% humidity) and watered twice daily. After 13 days the test was evaluated (100=total damage to plant; 0=no damage to plant). A dash (-) means no test result.

[2] = system: giant foxtail (Setaria faberi); test: Test G Pre-Emergence Protocol; conditions: evaluated after 13 days; for Foxtail, Giant damage rating / plant damage rating, Foxtail, Giant: 62.5 g ai/ha, 100=total damage to plant, 0=no damage to plant
Procedure: as §1, §2

[3] = system: ivy-leaved morning glory (Ipomoea hederacea); test: Test G Pre-Emergence Protocol; conditions: evaluated after 13 days; for Morningglory, Ivy-leaved damage rating / plant damage rating, Morningglory, Ivy-leaved: 62.5 g ai/ha, 100=total damage to plant, 0=no damage to plant
Procedure: as §1, §2

[4] = system: barnyardgrass (Echinochloa crus-galli); test: Test G Pre-Emergence Protocol; conditions: evaluated after 13 days; for Barnyardgrass damage rating / plant damage rating, Barnyardgrass: 62.5 g ai/ha, 100=total damage to plant, 0=no damage to plant
Procedure: as §1, §2

[5] = system: velvetleaf (Abutilon theophrasti); test: Test G Pre-Emergence Protocol; conditions: evaluated after 13 days; for Velvetleaf damage rating / plant damage rating, Velvetleaf: 62.5 g ai/ha, 100=total damage to plant, 0=no damage to plant
Procedure: as §1, §2

[6] = system: redroot pigweed (Amaranthus retroflexus); test: Test G Pre-Emergence Protocol; conditions: evaluated after 13 days; for Pigweed, Redroot damage rating / plant damage rating, Pigweed, Redroot: 62.5 g ai/ha, 100=total damage to plant, 0=no damage to plant
Procedure: as §1, §2

[7] = system: corn (Zea mays); test: Test G Post-Emergence Protocol
Procedure: as §1, with “8 days” for “one day”
as §2

[8] = system: giant foxtail (Setaria faberi); test: Test G Post-Emergence Protocol
Procedure: as §1, with “8 days” for “one day”
as §2

[9] = system: ivy-leaved morning glory (Ipomoea hederacea); test: Test G Post-Emergence Protocol
Procedure: as §1, with “8 days” for “one day”
as §2

[10] = system: barnyardgrass (Echinochloa crus-galli); test: Test G Post-Emergence Protocol
Procedure: as §1, with “8 days” for “one day”
as §2

[11] = system: velvetleaf (Abutilon theophrasti); test: Test G Post-Emergence Protocol
Procedure: as §1, with “8 days” for “one day”
as §2

[12] = system: redroot pigweed (Amaranthus retroflexus); test: Test G Post-Emergence Protocol
Procedure: as §1, with “8 days” for “one day”
as §2

[13] = 15.625 g ai/ha, evaluated after 13 days (100=total damage to plant; 0=no damage to plant)
[14] = 62.5 g ai/ha, evaluated after 13 days, 100=total damage to plant, 0=no damage to plant
[15] = 250 g ai/ha, evaluated after 13 days, 100=total damage to plant, 0=no damage to plant
[16] = 62.5 g ai/ha, evaluated after 13 days
[17] = 250 g ai/ha, evaluated after 13 days

SMILES	Corn damage rating (100=total damage to plant; 0=no damage to plant) ([1]; 15.625 g ai/ha)	Corn damage rating [1]	Corn damage rating (100=total damage to plant; 0=no damage to plant) ([1]; 250 g ai/ha)	Foxtail, Giant damage rating (100=total damage to plant; 0=no damage to plant) ([2]; 15.625 g ai/ha)	Foxtail, Giant damage rating [2]	Foxtail, Giant damage rating (100=total damage to plant; 0=no damage to plant) ([2]; 250 g ai/ha)	Morningglory, Ivy-leaved damage rating (100=total damage to plant; 0=no damage to plant) ([3]; 15.625 g ai/ha)	Morningglory, Ivy-leaved damage rating (100=total damage to plant; 0=no damage to plant) ([3]; 250 g ai/ha)	Barnyardgrass damage rating (100=total damage to plant; 0=no damage to plant) ([4]; 15.625 g ai/ha)	Barnyardgrass damage rating (100=total damage to plant; 0=no damage to plant) ([4]; 250 g ai/ha)	Velvetleaf damage rating (100=total damage to plant; 0=no damage to plant) ([5]; 15.625 g ai/ha)	Velvetleaf damage rating (100=total damage to plant; 0=no damage to plant) ([5]; 250 g ai/ha)	Pigweed, Redroot damage rating (100=total damage to plant; 0=no damage to plant) ([6]; 15.625 g ai/ha)	Pigweed, Redroot damage rating (100=total damage to plant; 0=no damage to plant) ([6]; 250 g ai/ha)	Corn damage rating [7, 13]	Foxtail, Giant damage rating [8, 13]	Morningglory, Ivy-leaved damage rating [9, 13]	Barnyardgrass damage rating [10, 13]	Velvetleaf damage rating [11, 13]	Pigweed, Redroot damage rating [12, 13]	also measured
CN1C[C@@H](c2ccc(C(F)(F)F)cc2)[C@H](C(=O)Nc2cccnc2F)C1=O [Compound 1768]	0	0	0	0	0	0	0	0	0	0	0	0	0	0	0	0	0	0	0	0	Morningglory, Ivy-leaved damage rating [3]: 0; Barnyardgrass damage rating [4]: 0; Velvetleaf damage rating [5]: 0; Pigweed, Redroot damage rating [6]: 0; Corn damage rating [7, 14]: 0; Corn damage rating [7, 15]: 0; Foxtail, Giant damage rating [8, 14]: 0; Foxtail, Giant damage rating [8, 15]: 0; Morningglory, Ivy-leaved damage rating [9, 14]: 0; Morningglory, Ivy-leaved damage rating [9, 15]: 0; Barnyardgrass damage rating [10, 14]: 0; Barnyardgrass damage rating [10, 15]: 0; Velvetleaf damage rating [11, 14]: 0; Velvetleaf damage rating [11, 15]: 0; Pigweed, Redroot damage rating [12, 14]: 0; Pigweed, Redroot damage rating [12, 15]: 0
COc1ccc([C@@H]2CN(C)C(=O)[C@H]2C(=O)Nc2ccccc2F)cc1[N+](=O)[O-] (racemic) [Compound 1417]	0		0	0		90		30	0	80	0	0	0	30	0	0	0	10	10	20	plant damage rating, Corn [1]: 0; plant damage rating, Foxtail, Giant [2]: 80; Morning-glory, Ivy-leaved damage rating (100=total damage to plant; 0=no damage to plant) ([3]; 15.625 g ai/ha): 0; plant damage rating, Morningglory, Ivy-leaved [3]: 0; plant damage rating, Barnyardgrass [4]: 60; plant damage rating, Velvetleaf [5]: 0; plant damage rating, Pigweed, Redroot [6]: 0; Corn damage rating (100=total damage to plant; 0=no damage to plant) [7, 16]: 10; damage to plant, Corn (100=total damage to plant; 0=no damage to plant) [7, 17]: 20; Foxtail, Giant damage rating (100=total damage to plant; 0=no damage to plant) [8, 16]: 70; damage to plant, Foxtail, Giant (100=total damage to plant; 0=no damage to plant) [8, 17]: 70; Morningglory, Ivy-leaved damage rating (100=total damage to plant; 0=no damage to plant) [9, 16]: 20; damage to plant, Morningglory, Ivy-leaved (100=total damage to plant; 0=no damage to plant) [9, 17]: 30; Barnyardgrass damage rating (100=total damage to plant; 0=no damage to plant) [10, 16]: 40; damage to plant, Barnyardgrass (100=total damage to plant; 0=no damage to plant) [10, 17]: 60; Velvetleaf damage rating (100=total damage to plant; 0=no damage to plant) [11, 16]: 20; damage to plant, Velvetleaf (100=total damage to plant; 0=no damage to plant) [11, 17]: 20; Pigweed, Redroot damage rating (100=total damage to plant; 0=no damage to plant) [12, 16]: 10; damage to plant, Pigweed, Redroot (100=total damage to plant; 0=no damage to plant) [12, 17]: 30
CN1C[C@H](c2cccc(C(F)(F)F)c2)[C@@H](C(=O)Nc2cccc(F)n2)C1=O [Compound 1816]	70	80	80	90	90	90	20	80	90	90	0	60	0	80	70	80	10	80	0	10	Morningglory, Ivy-leaved damage rating [3]: 60; Barnyardgrass damage rating [4]: 90; Velvetleaf damage rating [5]: 20; Pigweed, Redroot damage rating [6]: 40; Corn damage rating [7, 14]: 80; Corn damage rating [7, 15]: 80; Foxtail, Giant damage rating [8, 14]: 80; Foxtail, Giant damage rating [8, 15]: 80; Morningglory, Ivy-leaved damage rating [9, 14]: 60; Morningglory, Ivy-leaved damage rating [9, 15]: 70; Barnyardgrass damage rating [10, 14]: 80; Barnyardgrass damage rating [10, 15]: 80; Velvetleaf damage rating [11, 14]: 30; Velvetleaf damage rating [11, 15]: 30; Pigweed, Redroot damage rating [12, 14]: 40; Pigweed, Redroot damage rating [12, 15]: 70
CN1CC(c2ccc(C(F)(F)F)cc2)C(C(=O)Nc2[nH]cnc2[N+](=O)[O-])C1=O (racemic) [Compound 1507]	0		0	0		0		0	0	0	0	0	0	0	0	0	0	0	0	0	plant damage rating, Corn [1]: 0; plant damage rating, Foxtail, Giant [2]: 0; Morning-glory, Ivy-leaved damage rating (100=total damage to plant; 0=no damage to plant) ([3]; 15.625 g ai/ha): 0; plant damage rating, Morningglory, Ivy-leaved [3]: 0; plant damage rating, Barnyardgrass [4]: 0; plant damage rating, Velvetleaf [5]: 0; plant damage rating, Pigweed, Redroot [6]: 0; Corn damage rating (100=total damage to plant; 0=no damage to plant) [7, 16]: 0; damage to plant, Corn (100=total damage to plant; 0=no damage to plant) [7, 17]: 0; Foxtail, Giant damage rating (100=total damage to plant; 0=no damage to plant) [8, 16]: 0; damage to plant, Foxtail, Giant (100=total damage to plant; 0=no damage to plant) [8, 17]: 0; Morningglory, Ivy-leaved damage rating (100=total damage to plant; 0=no damage to plant) [9, 16]: 0; damage to plant, Morningglory, Ivy-leaved (100=total damage to plant; 0=no damage to plant) [9, 17]: 0; Barnyardgrass damage rating (100=total damage to plant; 0=no damage to plant) [10, 16]: 0; damage to plant, Barnyardgrass (100=total damage to plant; 0=no damage to plant) [10, 17]: 0; Velvetleaf damage rating (100=total damage to plant; 0=no damage to plant) [11, 16]: 0; damage to plant, Velvetleaf (100=total damage to plant; 0=no damage to plant) [11, 17]: 0; Pigweed, Redroot damage rating (100=total damage to plant; 0=no damage to plant) [12, 16]: 0; damage to plant, Pigweed, Redroot (100=total damage to plant; 0=no damage to plant) [12, 17]: 0
